Test results reported in patent US10005793B2, “Bodipy dyes for biological imaging” (The General Hospital Corporation, priority 2012, dated 2018).

Assays:
[1] = test system: MDA-MB-231 pLVX H2B-mCherry cells; experiment: Live cell fluorescence imaging after 24 hours treatment; type: cell-based; settings: 24 hours at 10 μM, 1 μM, and 100 nM; FIG. 5
Procedure: To investigate the impact of dye lipophilicity in the in vivo imaging context, we further treated MD-MBA 231 cells (with an H2B mCherry fluorescent reporter to localize the nucleus) with each compound for 24 hours at 10 μM, 1 μM, and 100 nM. Cells (MDA-MB-231 pLVX H2B-mCherry) lines were cultured using sterile technique in plastic dishes with standard cell-growth media [RPMI 1640 1× (+) phenol red, (+) 10% FBS, (+) 1% Pen-Strep]. Culture incubation during and in between experiments was performed in a sterile incubator (37° C., 5% CO2). All cultures used in imaging studies were confirmed to be mycoplasma-free prior to experimentation using a commercially available detection kit (MycoAlert, Lonza).
This property thereby limits non-specific staining effects that could have a confounding effect small-molecule imaging applications.

MD-MBA 231 cell line = experiment: Wash-out experiment, live-cell imaging; type: cell-based; settings: 30 minutes incubation with 10 µM compound, three 30 minute washes; FIG. 6
Procedure: Further validation of the dyes' low-lipophilicity was achieved via a wash-out experiment with the MD-MBA 231 cell line. In this experiment, we investigated the ease of washing out the mono-alkoxy fluorophores within 30 minutes (e.g., within 15 minutes of the start of incubation).
Two days prior to imaging, cells were seeded at 20,000 cells/well on a 96-well Glass Bottom Microwell plate (MatriPlate, MGB096-1-2-LG-L) treated with 1× Attachment Factor (0.1% gelatin, Gibco). For these experiments, phenol-red free imaging media was used [RPMI 1640 1× (+) 10% FBS]. The day of imaging, each well was incubated for 30 minutes with […] of the title compound suspended in cell imaging media (final DMSO content=0.1%). Subsequently three washes were performed. Each wash consisted of removing spent media, adding fresh imaging media, and incubating the cells for 30 minutes. After the final wash, the media was aspirated, a thin layer of cell imaging media was added, and wells were rapidly imaged.
Live-cell imaging was performed on a Zeiss Axiovert 100M inverted epifluorescence microscope with a 40× objective. Per region of interest, a bright field view was acquired as well as GFP, TexasRed fluorescence channels.

Row | Compound | staining pattern of live cells [1] | staining after wash-out (MD-MBA 231 cell line)
1 | CO[B-]1(F)n2c(C)cc(C)c2C(C)=C2C(C)=CC(C)=[N+]21 (stereo not shown) [AMC1028, 5-fluoro-5-methoxy-1,3,7,9,10-pentamethyl-5H-dipyrrolo[1,2-c:2′,1′-f][1,3,2]diazaborinin-4-ium-5-uide] | diffuse fluorescent signal | 
2 | CC1=CC(C)=[N+]2C1=C(C)c1c(C)cc(C)n1[B-]2(F)OCCO (stereo not shown) [AMC1029, 5-fluoro-5-(2-hydroxyethoxy)-1,3,7,9,10-pentamethyl-5H-dipyrrolo[1,2-c:2′,1′-f][1,3,2]diazaborinin-4-ium-5-uide] | diffuse fluorescent signal | 
3 | CC1=CC(C)=[N+]2C1=C(C)c1c(C)cc(C)n1[B-]2(F)F [AMC1094, 1,3,5,7,8-Pentamethyl BODIPY] | significant non-specific staining of cellular compartments | persistent non-specific staining
